Values quoted from earlier work as cited in patent US20040259844A1 (priority 2000, published 2004).

Test system: retinal ganglion cells

CN1[C@@H]2CC[C@H]1C[C@@H](OC(=O)C(CO)c1ccccc1)C2 (stereo partly shown) [atropine]
effect on veratridine-increased survival of retinal ganglion cells: blocked
